Experimental findings from PMC8373063 (2021) are described below.

Molecules are shown by their SMILES.

Common to all, as to assay: fluorescence polarization
For orientation: Polarisation of emitted light reports the rotation of a fluorescent probe.

For assay [1], the system named is RNA Seq4 (RNA, single strand) AAGAAGGAAGGUGC
The settings on record: 100 mM NaCl; 20 mM HEPES, 25 °C, 0.5 μM compound.

Assay [2] deals with S25 (DNA, single strand) AAAAGAAGGAAGATGCTC
The settings on record: 100 mM NaCl, 1 mM MgCl2; 20 mM HEPES, 25 °C, 0.5 μM compound.

Assay [3] concerns DNA S27 (DNA, single strand) AGAAGGAAGG
Particulars: 100 mM NaCl, 1 mM MgCl2; 20 mM HEPES, 25 °C; 0.5 μM SMN-C2.

Assay [4] has as its system RNA Seq7 (RNA, single strand) UUAAGGAAGGU
The settings on record: 100 mM NaCl; 20 mM HEPES, 25 °C; 0.5 μM SMN-C2.

The test system of assay [5] is S17 (DNA, single strand) AAAGGAAGGAAGGTGCTC
Particulars: 100 mM NaCl, 1 mM MgCl2; 20 mM HEPES, 25 °C, 0.5 μM compound.

Assay [6] concerns S14 (DNA, single strand) AAAAGAAGGATGGTGCTC
Particulars: 100 mM NaCl, 1 mM MgCl2; 20 mM HEPES, 25 °C, 0.5 μM compound.

In assay [7] the test system is DNA Seq17 (DNA, single strand) TGAAGGAAGAT
Particulars: 100 mM NaCl, 1 mM MgCl2; 20 mM HEPES, 25 °C; 0.5 μM SMN-C2.

The subject of assay [8] is DNA S1 (DNA, single strand) AAAAGAAGGAAGGTGCTC
Particulars: 100 mM NaCl, 1 mM MgCl2; 20 mM HEPES, 25 °C; 0.5 μM SMN-C2.

Assay [9] deals with DNA Seq14 (DNA, single strand) AGAAGGTAGGT
The settings on record: 100 mM NaCl, 1 mM MgCl2; 20 mM HEPES, 25 °C; 0.5 μM SMN-C2.

The test system of assay [10] is S5 (DNA, single strand) AAAAGAAUGAAGGTGCTC
The settings on record: 100 mM NaCl, 1 mM MgCl2; 20 mM HEPES, 25 °C, 0.5 μM compound.

Assay [11] has as its system DNA Seq22 (DNA, other) GTGCCAGTTCGCTGGCACTGAAGGAAGGT
Particulars: 100 mM NaCl, 1 mM MgCl2; 20 mM HEPES, 25 °C, 0.5 μM compound.

In assay [12] the test system is DNA S19 (DNA, single strand) AAAAGAGGGAAGGTGCTC
The settings on record: 100 mM NaCl, 1 mM MgCl2; 20 mM HEPES, 25 °C; 0.5 μM SMN-C2.

Assay [13] relates to S24 (DNA, single strand) AAAAGAAGGAAAGTGCTC
The settings on record: 100 mM NaCl, 1 mM MgCl2; 20 mM HEPES, 25 °C, 0.5 μM compound.

The subject of assay [14] is RNA Seq15 (RNA, single strand) UGAAGGAUGGU
Particulars: 100 mM NaCl; 20 mM HEPES, 25 °C; 0.5 μM SMN-C2.

Assay [15] relates to RNA Seq9 (RNA, single strand) UUAAGGAAGUU
The settings on record: 100 mM NaCl; 20 mM HEPES, 25 °C; 0.5 μM SMN-C2.

The test system of assay [16] is S23 (DNA, single strand) AAAAGAAGAAAGGTGCTC
The settings on record: 100 mM NaCl, 1 mM MgCl2; 20 mM HEPES, 25 °C, 0.5 μM compound.

The test system of assay [17] is DNA Seq20 (DNA, hairpin) TGAAGGAAGGTTTCGACCTTCCTTCA
The settings on record: 100 mM NaCl, 1 mM MgCl2; 20 mM HEPES, 25 °C, 0.5 μM compound.

Assay [18] deals with DNA Seq21 (DNA, hairpin) GCGCCGACTGAAGGAAGGAGTCGGCGC
Particulars: 100 mM NaCl, 1 mM MgCl2; 20 mM HEPES, 25 °C, 0.5 μM compound.

Assay [19] relates to RNA Seq18 (binding site 1 sequence) (RNA, mismatch bulge abasic, pseudouridine at 5 and 6 of strand 1) AUACUUACCU/GGAGGUAAGUCU
The settings on record: 100 mM NaCl; 20 mM HEPES, 25 °C; 0.5 μM SMN-C2.

For assay [20], the system named is RNA Seq10 (RNA, single strand) UAAAGGAAGGU
Particulars: 100 mM NaCl; 20 mM HEPES, 25 °C; 0.5 μM SMN-C2.

In assay [21] the test system is DNA Seq10 (DNA, single strand) TAAAGGAAGGT
Particulars: 100 mM NaCl, 1 mM MgCl2; 20 mM HEPES, 25 °C; 0.5 μM SMN-C2.

For assay [22], the system named is RNA Seq14 (RNA, single strand) AGAAGGUAGGU
Particulars: 100 mM NaCl; 20 mM HEPES, 25 °C; 0.5 μM SMN-C2.

In assay [23] the test system is S15 (DNA, single strand) AAAAGAAGGAATGTGCTC
The settings on record: 100 mM NaCl, 1 mM MgCl2; 20 mM HEPES, 25 °C, 0.5 μM compound.

Assay [24] has as its system DNA S26 (DNA, single strand) TGAAGGAAGG
Particulars: 100 mM NaCl, 1 mM MgCl2; 20 mM HEPES, 25 °C; 0.5 μM SMN-C2.

The Kd is the constant that tells how readily two partners part at equilibrium. A high value points to lower affinity. In the case of `CCN1CCN(c2ccc3cc(-c4cn5cc(C)nc(C)c5n4)c(=O)oc3c2)C[C@@H]1C`, the equilibrium dissociation constant (Kd) in assay [1] came to 21.7 ± 4.3 µM; in assay [2], 48 ± 7.8 µM; in assay [3], 11.6 ± 1.7 µM; in assay [4], 42.3 ± 13.3 µM; in [5], 16.5 ± 1.1 µM; in assay [6], 19.5 ± 2.3 µM. Also, the Kd is 56.4 ± 10.4 µM in assay [7]; 15.3 ± 0.6 µM in assay [8]; greater than 100 µM in assay [9]; 42.3 ± 4.2 µM in assay [10]; 10.0 ± 0.5 µM in assay [11]; 21.0 ± 1.1 µM in [12]. Also, the Kd in [13] was 36.8 ± 11.4 µM; in [14], 9.4 ± 0.5 µM; in [15], greater than 100 µM; in [16], > > 50 µM; in assay [17] it was 52.0 ± 25.7 µM; in assay [18] it was 12.8 ± 4.7 µM. The dissociation constant Kd in [19] was 60 ± 36 µM; in assay [20], greater than 100 µM; in assay [21], greater than 100 µM; in [22], 9.9 ± 0.8 µM; in [23] it was 31.4 ± 4 µM; in assay [24] it was 6.2 ± 1.0 µM.
